The values below come from ChEMBL document CHEMBL1153077, “Highly tractable, sub-nanomolar non-steroidal glucocorticoid receptor agonists” (Bioorg Med Chem Lett, 2009).

The target in one experiment is T1, Glucocorticoid receptor (Homo sapiens, UniProt P04150).
T1 sequence (P04150 whole entry): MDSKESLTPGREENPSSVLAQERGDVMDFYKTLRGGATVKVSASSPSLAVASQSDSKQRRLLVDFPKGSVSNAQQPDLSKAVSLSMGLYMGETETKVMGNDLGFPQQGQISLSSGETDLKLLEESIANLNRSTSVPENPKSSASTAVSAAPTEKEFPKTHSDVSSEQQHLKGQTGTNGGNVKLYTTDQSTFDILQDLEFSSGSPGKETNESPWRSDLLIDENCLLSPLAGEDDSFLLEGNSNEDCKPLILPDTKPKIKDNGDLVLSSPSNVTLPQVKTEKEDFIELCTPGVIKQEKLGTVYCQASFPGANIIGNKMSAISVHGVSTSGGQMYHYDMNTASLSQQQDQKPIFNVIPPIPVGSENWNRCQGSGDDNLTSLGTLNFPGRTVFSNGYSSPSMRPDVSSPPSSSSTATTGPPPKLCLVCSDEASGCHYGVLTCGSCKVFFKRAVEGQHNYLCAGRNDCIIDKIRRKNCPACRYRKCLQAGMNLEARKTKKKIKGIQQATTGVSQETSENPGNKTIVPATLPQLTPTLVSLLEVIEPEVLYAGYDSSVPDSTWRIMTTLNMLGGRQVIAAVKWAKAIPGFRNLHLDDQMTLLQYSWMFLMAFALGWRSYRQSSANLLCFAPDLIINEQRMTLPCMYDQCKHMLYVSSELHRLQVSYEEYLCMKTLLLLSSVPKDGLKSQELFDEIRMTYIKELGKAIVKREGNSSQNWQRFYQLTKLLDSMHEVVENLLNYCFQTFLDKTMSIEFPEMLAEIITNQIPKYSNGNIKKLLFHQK

The nature of experiment [1]: Selectivity ratio of pIC50 for progesterone receptor to pIC50 for human glucocorticoid receptor.
The nature of experiment [2]: Selectivity ratio of pIC50 for estrogen receptor to pIC50 for human glucocorticoid receptor.
A short description of experiment [3]: Selectivity ratio of pIC50 for androgen receptor to pIC50 for human glucocorticoid receptor.

Description for Glucocorticoid receptor: Agonist activity at GR in human A549 cells by NF-kappaB transrepression assay

For the compound `CCN(CC(O)(CNc1cccc2c1cnn2-c1ccc(F)cc1)C(F)(F)F)C(=O)c1ccccc1C` (racemic), the IC50 (usually the concentration needed to halve the response being measured) on Glucocorticoid receptor is 0.316 nM. Besides, the Ratio pIC50 in experiment [1], in experiment [2] and in experiment [3] was over 50 throughout.
In the case of `CCN(CC(O)(CNc1cc(C)cc2c1cnn2-c1ccccc1)C(F)(F)F)C(=O)c1ccccc1` (racemic), inhibition against Glucocorticoid receptor was half-maximal at 0.398 nM (IC50). Further, the Ratio pIC50 in experiment [1], in experiment [2] and in experiment [3] was over 50 in each case.
The compound `CCN(CC(O)(CNc1cccc2c1cnn2-c1ccccc1)C(F)(F)F)C(=O)c1ccccc1` (racemic) gave a half-inhibitory concentration (IC50) against Glucocorticoid receptor of 0.794 nM. In addition, the Ratio pIC50 in experiment [1], in experiment [2] and in experiment [3] was over 50 in each case.
Consider `CCN(CC(O)(CNc1cccc2c1cnn2-c1ccc(F)cc1)C(F)(F)F)C(=O)c1ccccc1F` (stereo in doubt; 32E1) [listing 1 of 2 here], for which the Ratio pIC50 in experiment [1], in experiment [2] and in experiment [3] was over 50 in each case.
For `CCN(CC(O)(CNc1cccc2c1cnn2-c1ccc(F)cc1)C(F)(F)F)C(=O)c1ccccc1F` (racemic) [listing 1 of 2 here], the Ratio pIC50 in experiment [1], in experiment [2] and in experiment [3] was over 50 throughout.
The compound `CCN(CC(O)(CNc1cccc2c1cnn2-c1ccc(F)cc1)C(F)(F)F)C(=O)c1c(F)cccc1F` (racemic) gave a 50% inhibitory concentration (IC50) against Glucocorticoid receptor of 0.316 nM. Moreover, the Ratio pIC50 in experiment [1], in experiment [2] and in experiment [3] was over 50 in each case.
The compound `CCN(CC(O)(CNc1cccc2c1cnn2-c1ccc(F)cc1)C(F)(F)F)C(=O)c1c(Cl)cccc1Cl` (stereo in doubt; 38E2) [listing 1 of 2 here] showed an IC50 against Glucocorticoid receptor of 10 nM. That is a double-digit nanomolar value.
On to `CCN(CC(O)(CNc1cccc2c1cnn2-c1ccc(F)cc1)C(F)(F)F)C(=O)c1ccccc1F` (stereo in doubt; 32E2) [listing 1 of 2 here], for which the Ratio pIC50 in experiment [1], in experiment [2] and in experiment [3] was over 50 each time.
In the case of `CCN(CC(O)(CNc1cccc2c1cnn2-c1ccccc1)C(F)(F)F)C(=O)c1ccccc1F` (racemic), on Glucocorticoid receptor, the IC50 was 0.316 nM. Also, the Ratio pIC50 in experiment [1], in experiment [2] and in experiment [3] was over 50 each time.
In turn, `CCN(CC(O)(CNc1cccc2c1cnn2-c1ccc(F)cc1)C(F)(F)F)C(=O)c1ccccc1` (racemic) had an IC50 at Glucocorticoid receptor of 0.794 nM. Besides, the Ratio pIC50 in experiment [1], in experiment [2] and in experiment [3] was over 50 in each case.
As to `CCN(CC(O)(CNc1nc(C)nc2c1cnn2-c1ccccc1)C(F)(F)F)S(=O)(=O)c1ccc(F)cc1` (racemic), half-maximal inhibition at Glucocorticoid receptor (IC50) required 25.1 nM. In addition, the Ratio pIC50 in experiment [1], in experiment [2] and in experiment [3] was over 50 each time.
`CCN(CC(O)(CNc1cccc2c1cnn2-c1ccccc1)C(F)(F)F)S(=O)(=O)c1ccc(F)cc1` (racemic) showed an IC50 against Glucocorticoid receptor of 7.94 nM. In addition, the Ratio pIC50 in experiment [1], in experiment [2] and in experiment [3] was over 50 throughout.
`CCN(CC(O)(CNc1cccc2c1cnn2-c1ccc(F)cc1)C(F)(F)F)C(=O)c1c(C)cccc1C` (racemic): half-maximal inhibition at Glucocorticoid receptor (IC50) was put at 0.501 nM. Besides, the Ratio pIC50 in experiment [1], in experiment [2] and in experiment [3] was over 50 in each case.
On Glucocorticoid receptor, `CCN(CC(O)(CNc1cc(C)cc2c1cnn2-c1ccc(F)cc1)C(F)(F)F)C(=O)c1ccccc1` (racemic) showed an IC50 of 0.398 nM. In addition, the Ratio pIC50 in experiment [1], in experiment [2] and in experiment [3] was over 50 in each case.
In turn, `CCCN(CC(O)(CNc1cccc2c1cnn2-c1ccccc1)C(F)(F)F)C(=O)c1ccccc1` (racemic) showed an IC50 at Glucocorticoid receptor of 3.16 nM. Also, the Ratio pIC50 in experiment [1], in experiment [2] and in experiment [3] was over 50 each time.
In turn, `CCN(CC(O)(CNc1cccc2c1cnn2-c1ccc(F)cc1)C(F)(F)F)C(=O)c1ccccc1F` (stereo in doubt; 32E2) [listing 2 of 2 here] showed an IC50 on Glucocorticoid receptor of 31.6 nM.
Compound `CCN(CC(O)(CNc1cc(C)cc2c1cnn2-c1ccc(F)cc1)C(F)(F)F)C(=O)c1ccccc1F` (racemic) had an IC50 on Glucocorticoid receptor of 0.2 nM. Further, the Ratio pIC50 in experiment [1], in experiment [2] and in experiment [3] was over 50 throughout.
`CCN(CC(O)(CNC(=O)c1cnn(-c2ccccc2)c1N)C(F)(F)F)S(=O)(=O)c1ccc(F)cc1` (racemic) showed an IC50 against Glucocorticoid receptor of 31.6 nM. Moreover, the Ratio pIC50 in experiment [1], in experiment [2] and in experiment [3] was over 50 each time.
Consider `CCN(CC(O)(CNc1cccc2c1cnn2-c1ccc(F)cc1)C(F)(F)F)C(=O)c1ccccc1F` (racemic) [listing 2 of 2 here], for which the midpoint of inhibition against Glucocorticoid receptor, the IC50, lay at 0.2 nM.
The same measure, in the same setting: the same measure for `CCC1(CC(O)(CNC(=O)c2cnn(-c3ccccc3)c2N)C(F)(F)F)CCCc2ccccc21` (racemic): 1.58 nM.
Regarding `CCN(CC(O)(CNc1cccc2c1cnn2-c1ccc(F)cc1)C(F)(F)F)C(=O)c1c(Cl)cccc1Cl` (stereo in doubt; 38E1) [listing 1 of 2 here], the Ratio pIC50 in experiment [1], in experiment [2] and in experiment [3] was over 50 in each case.
On Glucocorticoid receptor, `CCN(CC(O)(CNc1cccc2c1cnn2-c1ccccc1)C(F)(F)F)S(=O)(=O)c1ccccc1` (racemic) showed an IC50 of 2.51 nM. Also, the Ratio pIC50 in experiment [1], in experiment [2] and in experiment [3] was over 50 throughout.
In turn, `CCN(CC(O)(CNc1cc(C)cc2c1cnn2-c1ccccc1)C(F)(F)F)C(=O)c1ccccc1F` (racemic) gave an IC50 against Glucocorticoid receptor of 0.251 nM. The Ratio pIC50 in experiment [1], in experiment [2] and in experiment [3] was over 50 each time.
As for `CN(CC(O)(CNc1cccc2c1cnn2-c1ccccc1)C(F)(F)F)C(=O)c1ccccc1` (racemic), at Glucocorticoid receptor, the IC50 is 5.01 nM. The Ratio pIC50 in experiment [1], in experiment [2] and in experiment [3] was over 50 each time.
For `CCN(CC(O)(CNc1cccc2c1cnn2-c1ccc(F)cc1)C(F)(F)F)C(=O)c1c(Cl)cccc1Cl` (racemic) [listing 1 of 2 here], at Glucocorticoid receptor, 0.126 nM corresponded to half-maximal inhibition (IC50).
With `CCN(CC(O)(CNc1cccc2c1cnn2-c1ccc(F)cc1)C(F)(F)F)C(=O)c1c(Cl)cccc1Cl` (racemic) [listing 2 of 2 here], the Ratio pIC50 in experiment [1], in experiment [2] and in experiment [3] was over 50 throughout.
With `CCN(CC(O)(CNc1cccc2c1cnn2-c1ccc(F)cc1)C(F)(F)F)C(=O)c1c(Cl)cccc1Cl` (stereo in doubt; 38E2) [listing 2 of 2 here], the Ratio pIC50 in experiment [1], in experiment [2] and in experiment [3] was over 50 throughout.
For `CCN(CC(O)(CNc1cccc2c1cnn2-c1ccc(F)cc1)C(F)(F)F)C(=O)c1ccccc1F` (stereo in doubt; 32E1) [listing 2 of 2 here], at Glucocorticoid receptor, the IC50 was 0.126 nM.
Turning to `CCN(CC(O)(CNc1cccc2c1cnn2-c1ccc(F)cc1)C(F)(F)F)C(=O)c1c(Cl)cccc1Cl` (stereo in doubt; 38E1) [listing 2 of 2 here], 0.0794 nM corresponded to half-maximal inhibition against Glucocorticoid receptor (IC50).
`CCN(CC(O)(CNc1cccc2c1cnn2-c1ccc(F)cc1)C(F)(F)F)C(=O)c1ccccc1Cl` (racemic) showed an IC50 on Glucocorticoid receptor of 0.251 nM. The Ratio pIC50 in experiment [1], in experiment [2] and in experiment [3] was over 50 each time.
